Assay results published in ChEMBL document CHEMBL3885881, “DrugMatrix”.

Organism: Rattus norvegicus
Assay: DrugMatrix - Regimen: Daily Repeat
Type: toxicity, organism-based, Sprague-Dawley
Parameters: regimen Daily Repeat, gender Male, age 6-8 weeks
Details: in vivo, po, route oral GAVAGE, vehicle 100 % SALINE; for ABSOLUTE BASOPHIL / ABSOLUTE EOSINOPHIL / ABSOLUTE LYMPHOCYTE / ABSOLUTE MONOCYTE / ABSOLUTE SEGMENTED NEUTROPHIL / BASOPHIL / EOSINOPHIL / ERYTHROCYTE COUNT / HEMATOCRIT / HEMOGLOBIN / LEUKOCYTE COUNT / LYMPHOCYTE / MEAN CORPUSCULAR HEMOGLOBIN / MEAN CORPUSCULAR HEMOGLOBIN CONCENTRATION / MEAN CORPUSCULAR VOLUME / MONOCYTE / NEUTROPHIL / NUCLEATED RED BLOOD CELLS / PLATELET COUNT: tissue Blood; for ALANINE AMINOTRANSFERASE / ALBUMIN / ALKALINE PHOSPHATASE / ASPARTATE AMINOTRANSFERASE / BLOOD UREA NITROGEN / CARBON DIOXIDE / CHLORIDE / CHOLESTEROL / CREATINE PHOSPHOKINASE / CREATININE / GLUCOSE / LACTATE DEHYDROGENASE / LIPASE / PHOSPHORUS / POTASSIUM / SODIUM / TOTAL BILIRUBIN / TOTAL PROTEIN / URIC ACID: tissue Plasma
[1] = 0 mg/kg, 72 h, dose level Control, time 3 day
[2] = 0 mg/kg, 120 h, dose level Control, time 5 day
[3] = 17 mg/kg, 72 h, dose level Low, time 3 day
[4] = 17 mg/kg, 120 h, dose level Low, time 5 day

O=P1(NCCCl)OCCCN1CCCl (configuration not stated) [IFOSFAMIDE]
ABSOLUTE BASOPHIL [1]: 0 CELLS/uL | ABSOLUTE EOSINOPHIL [1]: 0 CELLS/uL | ABSOLUTE LYMPHOCYTE [1]: 8960.83 CELLS/uL | ABSOLUTE MONOCYTE [1]: 103.5 CELLS/uL | ABSOLUTE SEGMENTED NEUTROPHIL [1]: 635.67 CELLS/uL | BASOPHIL [1]: 0% | EOSINOPHIL [1]: 0% | ERYTHROCYTE COUNT [1]: 5.09 x10E6/uL | HEMATOCRIT [1]: 31.8% | HEMOGLOBIN [1]: 12.42 G/DL | LEUKOCYTE COUNT [1]: 9.7 x10E3/uL | LYMPHOCYTE [1]: 92.33% | MEAN CORPUSCULAR HEMOGLOBIN [1]: 24.4 pg | MEAN CORPUSCULAR HEMOGLOBIN CONCENTRATION [1]: 39.07 G/DL | MEAN CORPUSCULAR VOLUME [1]: 62.47 fL | MONOCYTE [1]: 1% | NEUTROPHIL [1]: 6.67% | NUCLEATED RED BLOOD CELLS [1]: 0 /100WBC | PLATELET COUNT [1]: 466.5 x10E3/uL | ALANINE AMINOTRANSFERASE [1]: 83.33 u/L | ALBUMIN [1]: 4.33 G/DL | ALKALINE PHOSPHATASE [1]: 340.5 u/L | ASPARTATE AMINOTRANSFERASE [1]: 189.83 u/L | BLOOD UREA NITROGEN [1]: 15.83 mg/dL | CARBON DIOXIDE [1]: 38 mmol/L | CHLORIDE [1]: 96.83 MEQ/L | CHOLESTEROL [1]: 72.5 mg/dL | CREATINE PHOSPHOKINASE [1]: 370.67 u/L | CREATININE [1]: 0.28 mg/dL | GLUCOSE [1]: 182.83 mg/dL | LACTATE DEHYDROGENASE [1]: 513.5 u/L | LIPASE [1]: 9.83 u/L | PHOSPHORUS [1]: 11.32 mg/dL | POTASSIUM [1]: 6.32 MEQ/L | SODIUM [1]: 145.12 MEQ/L | TOTAL BILIRUBIN [1]: 0.2 mg/dL | TOTAL PROTEIN [1]: 6.4 G/DL | URIC ACID [1]: 2.03 mg/dL | ABSOLUTE BASOPHIL [2]: 0 CELLS/uL | ABSOLUTE EOSINOPHIL [2]: 43.83 CELLS/uL | ABSOLUTE LYMPHOCYTE [2]: 7316.67 CELLS/uL | ABSOLUTE MONOCYTE [2]: 87.33 CELLS/uL | ABSOLUTE SEGMENTED NEUTROPHIL [2]: 418.83 CELLS/uL | BASOPHIL [2]: 0% | EOSINOPHIL [2]: 0.33% | ERYTHROCYTE COUNT [2]: 4.77 x10E6/uL | HEMATOCRIT [2]: 29.93% | HEMOGLOBIN [2]: 11.48 G/DL | LEUKOCYTE COUNT [2]: 7.87 x10E3/uL | LYMPHOCYTE [2]: 93.5% | MEAN CORPUSCULAR HEMOGLOBIN [2]: 24.17 pg | MEAN CORPUSCULAR HEMOGLOBIN CONCENTRATION [2]: 38.57 G/DL | MEAN CORPUSCULAR VOLUME [2]: 62.68 fL | MONOCYTE [2]: 1% | NEUTROPHIL [2]: 5.17% | NUCLEATED RED BLOOD CELLS [2]: 0 /100WBC | PLATELET COUNT [2]: 377.67 x10E3/uL | ALANINE AMINOTRANSFERASE [2]: 89 u/L | ALBUMIN [2]: 4.42 G/DL | ALKALINE PHOSPHATASE [2]: 275.17 u/L | ASPARTATE AMINOTRANSFERASE [2]: 204.17 u/L | BLOOD UREA NITROGEN [2]: 15.33 mg/dL | CARBON DIOXIDE [2]: 36.83 mmol/L | CHLORIDE [2]: 94.67 MEQ/L | CHOLESTEROL [2]: 92 mg/dL | CREATINE PHOSPHOKINASE [2]: 514.5 u/L | CREATININE [2]: 0.24 mg/dL | GLUCOSE [2]: 184.17 mg/dL | LACTATE DEHYDROGENASE [2]: 648.67 u/L | LIPASE [2]: 10 u/L | PHOSPHORUS [2]: 12.33 mg/dL | POTASSIUM [2]: 6.51 MEQ/L | SODIUM [2]: 144.63 MEQ/L | TOTAL BILIRUBIN [2]: 0.18 mg/dL | TOTAL PROTEIN [2]: 6.7 G/DL | URIC ACID [2]: 2.33 mg/dL | ABSOLUTE BASOPHIL [3]: 0 CELLS/uL | ABSOLUTE EOSINOPHIL [3]: 0 CELLS/uL | ABSOLUTE LYMPHOCYTE [3]: 7711.33 CELLS/uL | ABSOLUTE MONOCYTE [3]: 107 CELLS/uL | ABSOLUTE SEGMENTED NEUTROPHIL [3]: 448.33 CELLS/uL | BASOPHIL [3]: 0% | EOSINOPHIL [3]: 0% | ERYTHROCYTE COUNT [3]: 6.17 x10E6/uL | HEMATOCRIT [3]: 39.13% | HEMOGLOBIN [3]: 15.1 G/DL | LEUKOCYTE COUNT [3]: 8.27 x10E3/uL | LYMPHOCYTE [3]: 93.33% | MEAN CORPUSCULAR HEMOGLOBIN [3]: 24.47 pg | MEAN CORPUSCULAR HEMOGLOBIN CONCENTRATION [3]: 38.6 G/DL | MEAN CORPUSCULAR VOLUME [3]: 63.47 fL | MONOCYTE [3]: 1.33% | NEUTROPHIL [3]: 5.33% | NUCLEATED RED BLOOD CELLS [3]: 0 /100WBC | PLATELET COUNT [3]: 648 x10E3/uL | ALANINE AMINOTRANSFERASE [3]: 47.33 u/L | ALBUMIN [3]: 4.43 G/DL | ALKALINE PHOSPHATASE [3]: 256.67 u/L | ASPARTATE AMINOTRANSFERASE [3]: 80.33 u/L | BLOOD UREA NITROGEN [3]: 15 mg/dL | CARBON DIOXIDE [3]: 38.67 mmol/L | CHLORIDE [3]: 95.67 MEQ/L | CHOLESTEROL [3]: 85 mg/dL | CREATINE PHOSPHOKINASE [3]: 300 u/L | CREATININE [3]: 0.31 mg/dL | GLUCOSE [3]: 148.67 mg/dL | LACTATE DEHYDROGENASE [3]: 171.67 u/L | LIPASE [3]: 11.33 u/L | PHOSPHORUS [3]: 11.57 mg/dL | POTASSIUM [3]: 6.47 MEQ/L | SODIUM [3]: 144.97 MEQ/L | TOTAL BILIRUBIN [3]: 0.2 mg/dL | TOTAL PROTEIN [3]: 6.5 G/DL | URIC ACID [3]: 1.23 mg/dL | ABSOLUTE BASOPHIL [4]: 0 CELLS/uL | ABSOLUTE EOSINOPHIL [4]: 0 CELLS/uL | ABSOLUTE LYMPHOCYTE [4]: 4979.67 CELLS/uL | ABSOLUTE MONOCYTE [4]: 84.33 CELLS/uL | ABSOLUTE SEGMENTED NEUTROPHIL [4]: 269.33 CELLS/uL | BASOPHIL [4]: 0% | EOSINOPHIL [4]: 0% | ERYTHROCYTE COUNT [4]: 5.71 x10E6/uL | HEMATOCRIT [4]: 35.77% | HEMOGLOBIN [4]: 13.23 G/DL | LEUKOCYTE COUNT [4]: 5.33 x10E3/uL | LYMPHOCYTE [4]: 93% | MEAN CORPUSCULAR HEMOGLOBIN [4]: 23.13 pg | MEAN CORPUSCULAR HEMOGLOBIN CONCENTRATION [4]: 37.2 G/DL | MEAN CORPUSCULAR VOLUME [4]: 62.3 fL | MONOCYTE [4]: 1.67% | NEUTROPHIL [4]: 5.33% | NUCLEATED RED BLOOD CELLS [4]: 0 /100WBC | PLATELET COUNT [4]: 184 x10E3/uL | ALANINE AMINOTRANSFERASE [4]: 92.33 u/L | ALBUMIN [4]: 4.3 G/DL | ALKALINE PHOSPHATASE [4]: 295.33 u/L | ASPARTATE AMINOTRANSFERASE [4]: 158.33 u/L | BLOOD UREA NITROGEN [4]: 17 mg/dL | CARBON DIOXIDE [4]: 38 mmol/L | CHLORIDE [4]: 94 MEQ/L | CHOLESTEROL [4]: 79.67 mg/dL | CREATINE PHOSPHOKINASE [4]: 366 u/L | CREATININE [4]: 0.26 mg/dL | GLUCOSE [4]: 149.67 mg/dL | LACTATE DEHYDROGENASE [4]: 519 u/L | LIPASE [4]: 9.67 u/L | PHOSPHORUS [4]: 12.83 mg/dL | POTASSIUM [4]: 7.12 MEQ/L | SODIUM [4]: 144.83 MEQ/L | TOTAL BILIRUBIN [4]: 0.17 mg/dL | TOTAL PROTEIN [4]: 6.57 G/DL | URIC ACID [4]: 1.43 mg/dL
